The data set in a line: Half life in human plasma at 20 mg/day, po. It is filed as ADME, organism-based.

Molecules are shown by their SMILES.

On to `Cl.Clc1ccc(CCCOCCCN2CCCCC2)cc1` [PITOLISANT HYDROCHLORIDE], for which the half-life was in the range of 600 to 720 min.

By half-life is commonly meant the time in which the quantity being followed falls by half. Low readings indicate fast loss, high ones slow loss.

Values taken from ChEMBL document CHEMBL4145555, “Synthetic Approaches to New Drugs Approved During 2016” (J Med Chem, 2018).
